Structures are written as SMILES. Values after ≈ are worked out from the molar mass of the structure shown.

Common to all, as to assay type: cell-based
For test [1], the system named is N. gonorrhoeae FA1090. The experiment in a line: Liquid broth MIC in Fastidious broth. As to conditions: Neisseria gonorrhoeae; N. gonorrhoeae strain FA1090; Fastidious broth; read-out: Minimum Inhibitory Concentration, N. gonorrhoeae FA1090. The essentials: (§1)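 Colonies were swabbed from chocolate agar after 24 h growth and standardised by optical density at 600 nm. Compounds were serially diluted twofold in Fastidious broth, and bacteria added to give 5×10^5 CFU/mL. After about 24 h at 36 °C in 5% CO2, the lowest concentration allowing under 10% growth was taken as MIC.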

The test system of test [2] is N. gonorrhoeae WHO L. The experiment in a line: Liquid broth MIC in Fastidious broth. As to conditions: Neisseria gonorrhoeae; N. gonorrhoeae strain WHO L; Fastidious broth; read-out: Minimum Inhibitory Concentration, N. gonorrhoeae WHO L. The method, boiled down: as §1
Test [3] has as its system N. gonorrhoeae ATCC 49226. In words: Liquid broth MIC in Fastidious broth. The conditions noted are these: Neisseria gonorrhoeae, ATCC49226; N. gonorrhoeae strain ATCC 49226; Fastidious broth; read-out: Minimum Inhibitory Concentration, N. gonorrhoeae ATCC 49226. The method, boiled down:
as §1

In test [4] the test system is N. gonorrhoeae H041. In words: Liquid broth MIC in Fastidious broth. The conditions noted are these: Neisseria gonorrhoeae, H041, read-out: Minimum Inhibitory Concentration, N. gonorrhoeae H041. The method, boiled down:
(§2)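 Mosaic PBP2 producers; colonies from 24 h chocolate agar, saline suspension, OD600. Fastidious broth, 2-fold dilutions, 5×10^5 CFU/mL. ~24 h, 36 °C, 5% CO2; visual MIC, <10% growth cutoff.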

The test system of test [5] is N. gonorrhoeae WHO Z. In words: Liquid broth MIC in Fastidious broth. The conditions noted are these: Neisseria gonorrhoeae, read-out: Minimum Inhibitory Concentration, N. gonorrhoeae WHO Z. The essentials: as §2
For test [6], the system named is N. gonorrhoeae WHO Q. The experiment in a line: Liquid broth MIC in Fastidious broth. The conditions noted are these: Neisseria gonorrhoeae, read-out: Minimum Inhibitory Concentration, N. gonorrhoeae WHO Q. The method, boiled down: as §2
Test [7] deals with N. gonorrhoeae WHO G. The experiment in a line: Liquid broth MIC in Fastidious broth. As to conditions: Neisseria gonorrhoeae; N. gonorrhoeae strain WHO G; Fastidious broth; read-out: Minimum Inhibitory Concentration, N. gonorrhoeae WHO G. The method, boiled down:
as §1

In test [8] the test system is N. gonorrhoeae WHO K. In words: Liquid broth MIC in Fastidious broth. The conditions noted are these: Neisseria gonorrhoeae, read-out: Minimum Inhibitory Concentration, N. gonorrhoeae WHO K. The method, boiled down: as §2
For test [9], the system named is K. pneumoniae SI-117 producing VIM-1. The experiment in a line: Broth microdilution MIC in CAMHB. The conditions noted are these: Klebsiella pneumoniae, read-out: Minimum Inhibitory Concentration, K. pneumoniae SI-117. The essentials: (§3)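 Colonies from cation-adjusted Mueller Hinton agar are grown in broth (3-5 h, 37° C), adjusted by OD600, and added at 2-8×10^5 CFU/mL to 2-fold compound dilutions. After 16-20 h at 37° C, the lowest concentration without growth is taken as MIC.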

Test [10] has as its system A. baumannii ATCC 19606. In words: Broth microdilution MIC in CAMHB. The conditions noted are these: Acinetobacter baumannii, ATCC19606; MHB; read-out: Minimum Inhibitory Concentration, A. baumannii ATCC 19606. The essentials: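 MIC, read by eye, is the lowest compound concentration giving no bacterial growth after 16-20 h at 37° C. Test compounds are serially diluted 2-fold in CAMHB and seeded with 2-8×10^5 CFU/mL of bacteria taken from a 3-5 h shaking culture, following CLSI methods.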

Test [11] deals with E. coli 901C. In words: Broth microdilution MIC in CAMHB. As to conditions: Escherichia coli; E. coli 901C (hyper-permeable); MHB; read-out: Minimum Inhibitory Concentration, E. coli 901C. The method, boiled down: as §3
In general terms: Broth dilution looks for growth in wells or tubes with falling amounts of substance.

The test system of test [12] is P. aeruginosa ATCC 35151. In words: Broth microdilution MIC in CAMHB. As to conditions: Pseudomonas aeruginosa, ATCC35151; MHB; hyper-permeable strain; read-out: Minimum Inhibitory Concentration, P. aeruginosa ATCC 35151. The method, boiled down: as §3

As to `NCCCN1CCN(C(=O)NC(C(=O)N[C@H]2Cc3cccc(C(=O)O)c3OB2O)c2c(F)cc(O)cc2F)C(=O)C1=O` (stereo partly drawn) [Example 183, (3R)-3-(2-(4-(3-aminopropyl)-2,3-dioxopiperazine-1-carboxamido)-2-(2,6-difluoro-4-hydroxyphenyl)acetamido)-2-hydroxy-3,4-dihydro-2H-benzo[e][1,2]oxaborinine-8-carboxylic acid], the MIC is 1 to 2 µg/mL (≈ 1.7 to 3.39 µM) in test [1]; above 64 µg/mL in test [2]; 16 to 32 µg/mL (≈ 27.2 to 54.3 µM) in [3]; above 64 µg/mL in [4]; above 64 µg/mL in test [5]; above 64 µg/mL in [6]. Also, the MIC in [7] was 16 to 32 µg/mL (≈ 27.2 to 54.3 µM); in [8], above 64 µg/mL; in test [9], 32 to 64 µg/mL (≈ 54.3 to 109 µM); in [10], above 128 µg/mL; in [11], 0.5 to 1 µg/mL (≈ 0.848 to 1.7 µM); in [12] it was 2 to 4 µg/mL (≈ 3.39 to 6.79 µM).
Regarding `CCN1CCN(C(=O)NC(C(=O)N[C@H]2Cc3cccc(C(=O)O)c3OB2O)c2cc([N+](=O)[O-])c(O)cc2F)C(=O)C1=O` (stereo partly drawn) [Example 184, (3R)-3-(2-(4-ethyl-2,3-dioxopiperazine-1-carboxamido)-2-(2-fluoro-4-hydroxy-5-nitrophenyl)acetamido)-2-hydroxy-3,4-dihydro-2H-benzo[e][1,2]oxaborinine-8-carboxylic acid], the MIC in [1] was below 0.125 µg/mL; in [2], 16 to 32 µg/mL (≈ 27.2 to 54.5 µM); in [3], 4 to 8 µg/mL (≈ 6.81 to 13.6 µM); in test [4], 16 to 32 µg/mL (≈ 27.2 to 54.5 µM); in test [5], 4 to 8 µg/mL (≈ 6.81 to 13.6 µM); in test [6] it was 4 to 8 µg/mL (≈ 6.81 to 13.6 µM). The MIC is 1 to 2 µg/mL (≈ 1.7 to 3.41 µM) in test [7]; 16 to 32 µg/mL (≈ 27.2 to 54.5 µM) in [8]; above 128 µg/mL in test [9]; above 128 µg/mL in [10]; below 0.25 µg/mL in test [11]; 0.5 to 1 µg/mL (≈ 0.851 to 1.7 µM) in test [12].
Consider `CCN1CCN(C(=O)NC(C(=O)N[C@H]2Cc3cccc(C(=O)O)c3OB2O)c2ccc(O)c(Cl)c2F)C(=O)C1=O` (stereo partly drawn) [Example 185, (3R)-3-(2-(3-chloro-2-fluoro-4-hydroxyphenyl)-2-(4-ethyl-2,3-dioxopiperazine-1-carboxamido)acetamido)-2-hydroxy-3,4-dihydro-2H-benzo[e][1,2]oxaborinine-8-carboxylic acid], for which the MIC in test [1] was below 0.125 µg/mL; in [2], 16 to 32 µg/mL (≈ 27.7 to 55.5 µM); in test [3] it was 4 to 8 µg/mL (≈ 6.94 to 13.9 µM); in test [4], 16 to 32 µg/mL (≈ 27.7 to 55.5 µM); in test [5] it was 4 to 8 µg/mL (≈ 6.94 to 13.9 µM); in test [6] it was 16 to 32 µg/mL (≈ 27.7 to 55.5 µM). Moreover, the MIC in test [7] is 4 to 8 µg/mL (≈ 6.94 to 13.9 µM); in test [8], 16 to 32 µg/mL (≈ 27.7 to 55.5 µM); in test [9], 32 to 64 µg/mL (≈ 55.5 to 111 µM); in test [10] it was above 128 µg/mL; in test [11], below 0.25 µg/mL; in test [12], 0.5 to 1 µg/mL (≈ 0.867 to 1.73 µM).
With `CCN1CCN(C(=O)NC(C(=O)N[C@H]2Cc3cccc(C(=O)O)c3OB2O)c2c(F)cc(NC(C)=O)cc2F)C(=O)C1=O` (stereo partly drawn) [Example 188, (3R)-3-(2-(4-acetamido-2,6-difluorophenyl)-2-(4-ethyl-2,3-dioxopiperazine-1-carboxamido)acetamido)-2-hydroxy-3,4-dihydro-2H-benzo[e][1,2]oxaborinine-8-carboxylic acid], the MIC in test [1] was 0.25 to 0.5 µg/mL (≈ 0.416 to 0.831 µM); in [2], above 64 µg/mL; in [3], 4 to 8 µg/mL (≈ 6.65 to 13.3 µM); in test [4] it was above 64 µg/mL; in test [5], 16 to 32 µg/mL (≈ 26.6 to 53.2 µM); in test [6] it was 16 to 32 µg/mL (≈ 26.6 to 53.2 µM). Besides, the MIC in [7] was 4 to 8 µg/mL (≈ 6.65 to 13.3 µM); in test [8], above 64 µg/mL; in test [9] it was above 128 µg/mL; in test [10] it was above 128 µg/mL; in test [11], below 0.25 µg/mL; in [12], 0.5 to 1 µg/mL (≈ 0.831 to 1.66 µM).
Regarding `CCN1CCN(C(=O)NC(C(=O)N[C@H]2Cc3cccc(C(=O)O)c3OB2O)c2cc(C#N)c(OC)cc2F)C(=O)C1=O` (stereo partly drawn) [Example 192, (3R)-3-(2-(5-cyano-2-fluoro-4-methoxyphenyl)-2-(4-ethyl-2,3-dioxopiperazine-1-carboxamido)acetamido)-2-hydroxy-3,4-dihydro-2H-benzo[e][1,2]oxaborinine-8-carboxylic acid], the MIC in test [1] was 4 to 8 µg/mL (≈ 6.88 to 13.8 µM); in [2], above 64 µg/mL; in [3] it was above 64 µg/mL; in test [4], above 64 µg/mL; in [5] it was above 64 µg/mL; in test [6] it was above 64 µg/mL. Further, the MIC was above 64 µg/mL in [7]; above 64 µg/mL in test [8]; above 128 µg/mL in [9]; above 128 µg/mL in test [10]; 2 to 4 µg/mL (≈ 3.44 to 6.88 µM) in test [11]; 2 to 4 µg/mL (≈ 3.44 to 6.88 µM) in test [12].

These data come from patent US20230114728A1 (Venatorx Pharmaceuticals, Inc., priority 2019, published 2023).
